The results in this text go back to article PMC9822021, “Biological Activity of Amidino-Substituted Imidazo [4,5-b]pyridines” (Molecules, 2022).

Where only a bound is given, the exact number is not on record here.

The subject of one data set is HCoV OC43. Nature of the data set: Antiviral CPE reduction assay. It counts as cell-based, human coronavirus OC43. The settings on record: Betacoronavirus 1, OC43, HEL 299 cells.
Molecule `Brc1cnc2nc(-c3ccccc3)[nH]c2c1` [Compound 7, 6-Bromo-2-phenyl-1H-imidazo[4,5-b]pyridine] yielded an EC50 greater than 100 µM.

The next data set has as its system Sindbis. As to the kind of experiment: Antiviral CPE reduction assay. It counts as cell-based. The settings on record: Sindbis virus, Huh-7, Huh7 cells.
On to `Brc1cnc2nc(-c3ccccc3)[nH]c2c1` [Compound 7, 6-Bromo-2-phenyl-1H-imidazo[4,5-b]pyridine], for which the EC50 was greater than 100 µM.

The test system of a further data set is Influenza B (B/Ned/537/05). As to the kind of experiment: Antiviral CPE reduction assay. It counts as cell-based. The note with it: Influenza B virus, MDCK cells.
On to `Brc1cnc2nc(-c3ccccc3)[nH]c2c1` [Compound 7, 6-Bromo-2-phenyl-1H-imidazo[4,5-b]pyridine], for which the EC50 was greater than 100 µM.

For another data set, the system named is Influenza H1N1 (A/Ned/378/05). As to the kind of experiment: Antiviral CPE reduction assay. The note with it: Influenza A virus, MDCK cells. It counts as cell-based.
The molecule `Brc1cnc2nc(-c3ccccc3)[nH]c2c1` [Compound 7, 6-Bromo-2-phenyl-1H-imidazo[4,5-b]pyridine] showed a half-maximal effective concentration (EC50) greater than 100 µM.

For another data set, the system named is HSV-1 KOS. As to the kind of experiment: Antiviral CPE reduction assay. It counts as cell-based, herpes simplex virus-1. The note with it: Human alphaherpesvirus 1.
In turn, `Brc1cnc2nc(-c3ccccc3)[nH]c2c1` [Compound 7, 6-Bromo-2-phenyl-1H-imidazo[4,5-b]pyridine] registered an EC50 greater than 100 µM.

A further data set relates to HCoV NL63. As to the kind of experiment: Antiviral CPE reduction assay. It counts as cell-based. The settings on record: Human coronavirus NL63, Huh-7, Huh7 cells.
`Brc1cnc2nc(-c3ccccc3)[nH]c2c1` [Compound 7, 6-Bromo-2-phenyl-1H-imidazo[4,5-b]pyridine]: the EC50 was greater than 100 µM.

Test system in a further data set: not listed separately
Nature of the data set: in vitro. The note with it: human.
With `Brc1cnc2nc(-c3ccccc3)[nH]c2c1` [Compound 7, 6-Bromo-2-phenyl-1H-imidazo[4,5-b]pyridine], the CC50 was greater than 100 µM.

Test system in a further data set: not given
Test: not given
Conditions: not given
As to `Brc1cnc2nc(-c3ccccc3)[nH]c2c1` [Compound 7, 6-Bromo-2-phenyl-1H-imidazo[4,5-b]pyridine], the melting point was greater than 300 °C.

Test system in another data set: not listed separately
Nature of the data set: in vitro. The settings on record: dog.
On to `Brc1cnc2nc(-c3ccccc3)[nH]c2c1` [Compound 7, 6-Bromo-2-phenyl-1H-imidazo[4,5-b]pyridine], for which the CC50 was greater than 100 µM.

For the next data set, the system named is YFV 17D. Nature of the data set: microbe, parasite or virus in culture. It counts as cell-based. The settings on record: Yellow fever virus, Huh-7, read-out: EC50 YFV 17D Huh7.
For the molecule `Brc1cnc2nc(-c3ccccc3)[nH]c2c1` [Compound 7, 6-Bromo-2-phenyl-1H-imidazo[4,5-b]pyridine], the EC50 was greater than 100 µM.

In a further data set the test system is Zika mr766. Nature of the data set: Antiviral CPE reduction assay. It counts as cell-based. The note with it: Zika virus, Huh-7, Huh7 cells.
As to `Brc1cnc2nc(-c3ccccc3)[nH]c2c1` [Compound 7, 6-Bromo-2-phenyl-1H-imidazo[4,5-b]pyridine], the EC50 was greater than 100 µM.

Test system in a further data set: not listed separately
As to the kind of experiment: in vitro. The note with it: human. The source holds these as a separate data set.
`Brc1cnc2nc(-c3ccccc3)[nH]c2c1` [Compound 7, 6-Bromo-2-phenyl-1H-imidazo[4,5-b]pyridine] registered a CC50 greater than 100 µM.

Another data set concerns RSV A Long. Nature of the data set: Antiviral CPE reduction assay. It counts as cell-based, respiratory syncytial virus A. The note with it: human respiratory syncytial virus, HEL 299, CPE reduction, HEL 299 cells.
`Brc1cnc2nc(-c3ccccc3)[nH]c2c1` [Compound 7, 6-Bromo-2-phenyl-1H-imidazo[4,5-b]pyridine] registered an EC50 of 21 ± 5.9 µM.

For another data set, the system named is HCoV 229E. As to the kind of experiment: Antiviral CPE reduction assay. It counts as cell-based. The settings on record: Human coronavirus 229E, HEL 299 cells.
For `Brc1cnc2nc(-c3ccccc3)[nH]c2c1` [Compound 7, 6-Bromo-2-phenyl-1H-imidazo[4,5-b]pyridine], the EC50 was greater than 100 µM.

In a further data set the test system is Influenza H3N2 (A/HK/7/87). As to the kind of experiment: Antiviral CPE reduction assay. The note with it: Influenza A virus, MDCK cells. It counts as cell-based.
`Brc1cnc2nc(-c3ccccc3)[nH]c2c1` [Compound 7, 6-Bromo-2-phenyl-1H-imidazo[4,5-b]pyridine] gave an EC50 greater than 100 µM.

The test system of a further data set is E. coli Efflux Del. As to the kind of experiment: microbe, parasite or virus in culture. It counts as cell-based. The note with it: Escherichia coli, read-out: MIC E. coli Efflux Del. On the procedure: (§1) Synthesized compounds were prepared as 10 mM DMSO solutions and tested in a final concentration range of 100–0.2 µM [34].
(§2) Broth microdilution testing was performed according to CLSI (Clinical Laboratory Standards Institute) guidelines. MIC (minimal inhibitory concentration) values were defined as the last tested concentration of the compound at which there was no visible growth of bacteria. Inoculums for each microorganism were prepared using the direct colony suspension method, where broth solutions that achieved turbidity equivalent to 0.5 McFarland standard were additionally diluted 100× with Ca-adjusted MH media (Becton Dickinson).
Turning to `Brc1cnc2nc(-c3ccccc3)[nH]c2c1` [Compound 7, 6-Bromo-2-phenyl-1H-imidazo[4,5-b]pyridine], the MIC is greater than 64 µM.

For a further data set, the system named is S. aureus ATCC 29213. As to the kind of experiment: Antibacterial activity in vitro, broth microdilution. It counts as cell-based. The note with it: Staphylococcus aureus, ATCC29213; broth microdilution (CLSI), 16–24 h at 37 °C. On the procedure: as §1, §2
As for `Brc1cnc2nc(-c3ccccc3)[nH]c2c1` [Compound 7, 6-Bromo-2-phenyl-1H-imidazo[4,5-b]pyridine], the MIC was greater than 64 µM.

A further data set has as its system E. coli ATCC 25922. The description is as above. It counts as cell-based. The settings on record: Escherichia coli, ATCC25922; broth microdilution (CLSI), 16–24 h at 37 °C. On the procedure:
as §1, §2
In turn, `Brc1cnc2nc(-c3ccccc3)[nH]c2c1` [Compound 7, 6-Bromo-2-phenyl-1H-imidazo[4,5-b]pyridine] came in with an MIC greater than 64 µM.

The subject of another data set is S. Pneumoniae ATCC 49619. Described as above. It counts as cell-based. The note with it: Streptococcus pneumoniae, ATCC49619; broth microdilution (CLSI), 16–24 h at 37 °C. On the procedure:
as §1, §2
On to `Brc1cnc2nc(-c3ccccc3)[nH]c2c1` [Compound 7, 6-Bromo-2-phenyl-1H-imidazo[4,5-b]pyridine], for which the MIC was greater than 64 µM.
